Measured values from ChEMBL document CHEMBL3091362, “Molecular basis for the long duration of action and kinetic selectivity of tiotropium for the muscarinic M3 receptor” (J Med Chem, 2013).

Experiments:
[1] = target: T1, Muscarinic acetylcholine receptor M3 (Homo sapiens, UniProt P20309); experiment: biochemical; type: cell-based, HEK-293T
Target sequence in this assay (P20309 whole entry): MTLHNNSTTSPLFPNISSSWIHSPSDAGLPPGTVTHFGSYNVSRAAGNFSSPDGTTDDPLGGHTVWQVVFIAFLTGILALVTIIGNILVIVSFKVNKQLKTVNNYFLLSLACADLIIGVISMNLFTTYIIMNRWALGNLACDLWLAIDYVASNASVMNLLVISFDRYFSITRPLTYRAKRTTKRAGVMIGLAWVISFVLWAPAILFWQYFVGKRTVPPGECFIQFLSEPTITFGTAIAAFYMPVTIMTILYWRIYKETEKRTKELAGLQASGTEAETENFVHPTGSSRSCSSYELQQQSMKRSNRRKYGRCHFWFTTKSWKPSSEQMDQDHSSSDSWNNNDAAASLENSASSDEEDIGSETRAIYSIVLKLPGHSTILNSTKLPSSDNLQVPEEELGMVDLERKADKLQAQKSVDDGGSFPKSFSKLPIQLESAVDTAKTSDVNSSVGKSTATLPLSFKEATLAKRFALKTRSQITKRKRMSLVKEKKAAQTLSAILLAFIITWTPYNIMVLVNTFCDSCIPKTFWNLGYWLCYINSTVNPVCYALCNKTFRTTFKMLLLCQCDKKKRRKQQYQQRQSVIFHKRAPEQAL
Description: Binding affinity to wild type human M3 receptor expressed in HEK293T cells up to 24 hrs by radioligand displacement assay

[2] = test system: Muscarinic acetylcholine receptor M3 (Homo sapiens), P20309 [K523A]; conditions: HEK-293T
[3] = test system: Muscarinic acetylcholine receptor M3 (Homo sapiens), P20309 [D518A]; conditions: HEK-293T
Chain of Muscarinic acetylcholine receptor M3 (Homo sapiens), P20309 [D518A] (P20309 whole entry D518A): as the sequence (P20309 whole entry) above, with D518A counted along it

[4] = test system: Muscarinic acetylcholine receptor M3 (Homo sapiens), P20309 [E228A]; conditions: HEK-293T
Chain of Muscarinic acetylcholine receptor M3 (Homo sapiens), P20309 [E228A] (P20309 whole entry E228A): as the sequence (P20309 whole entry) above, with E228A counted along it

[5] = test system: Muscarinic acetylcholine receptor M3 (Homo sapiens), P20309 [F225A]; conditions: HEK-293T
Chain of Muscarinic acetylcholine receptor M3 (Homo sapiens), P20309 [F225A] (P20309 whole entry F225A): as the sequence (P20309 whole entry) above, with F225A counted along it

[6] = test system: Muscarinic acetylcholine receptor M3 (Homo sapiens), P20309 [Q224A]; conditions: HEK-293T
Chain of Muscarinic acetylcholine receptor M3 (Homo sapiens), P20309 [Q224A] (P20309 whole entry Q224A): as the sequence (P20309 whole entry) above, with Q224A counted along it

[7] = test system: Muscarinic acetylcholine receptor M3 (Homo sapiens), P20309 [F222A]; conditions: HEK-293T
Chain of Muscarinic acetylcholine receptor M3 (Homo sapiens), P20309 [F222A] (P20309 whole entry F222A): as the sequence (P20309 whole entry) above, with F222A counted along it

[8] = test system: Muscarinic acetylcholine receptor M3 (Homo sapiens), P20309 [E220A]; conditions: HEK-293T
Chain of Muscarinic acetylcholine receptor M3 (Homo sapiens), P20309 [E220A] (P20309 whole entry E220A): as the sequence (P20309 whole entry) above, with E220A counted along it

[9] = test system: Muscarinic acetylcholine receptor M3 (Homo sapiens), P20309 [K213A]; conditions: HEK-293T
Chain of Muscarinic acetylcholine receptor M3 (Homo sapiens), P20309 [K213A] (P20309 whole entry K213A): as the sequence (P20309 whole entry) above, with K213A counted along it

[10] = test system: Muscarinic acetylcholine receptor M3 (Homo sapiens), P20309 [R133A]; conditions: HEK-293T
Chain of Muscarinic acetylcholine receptor M3 (Homo sapiens), P20309 [R133A] (P20309 whole entry R133A): as the sequence (P20309 whole entry) above, with R133A counted along it

[11] = target: T1, Muscarinic acetylcholine receptor M3; conditions: HEK-293T
Target sequence in this assay (P20309 whole entry, looked up): as the sequence (P20309 whole entry) above
Description: Binding affinity to wild type human M3 receptor expressed in HEK293T cells assessed as half life by radioligand displacement assay

Chain of Muscarinic acetylcholine receptor M3 (Homo sapiens), P20309 [K523A] (P20309 whole entry K523A): as the sequence (P20309 whole entry) above, with K523A counted along it

COC(C(=O)O[C@H]1C[C@@H]2[C@H]3O[C@H]3[C@H](C1)[N+]2(C)C)(c1cccs1)c1cccs1
Ki [1]: 1.58 nM

C[N+]1(C)[C@@H]2C[C@H](OC(=O)C(O)(c3ccccc3)c3ccccc3)C[C@H]1[C@@H]1O[C@@H]12
Ki [1]: 0.0631 nM

C[N+]1(C)[C@@H]2C[C@H](OC(=O)C(CO)(c3cccs3)c3cccs3)C[C@H]1[C@@H]1O[C@@H]12
Ki [1]: 0.316 nM

CC(C(=O)O[C@H]1C[C@@H]2[C@H]3O[C@H]3[C@H](C1)[N+]2(C)C)(c1cccs1)c1cccs1
Ki [1]: 0.0501 nM

C[N+]1(C)[C@@H]2C[C@H](OC(=O)C(O)c3cccs3)C[C@H]1[C@@H]1O[C@@H]12 (stereo partly specified)
Ki [1]: 5.01 nM

C[N+]1(C)[C@@H]2C[C@@H](OC(=O)C(O)(c3cccs3)c3cccs3)C[C@H]1[C@@H]1O[C@@H]12
T1/2 [2]: 12.5 h | T1/2 [3]: 22.6 h | T1/2 [4]: 20.1 h | T1/2 [5]: 13.8 h | T1/2 [6]: 12.4 h | T1/2 [7]: 23 h | T1/2 [8]: 31.7 h | T1/2 [9]: 20.4 h | T1/2 [10]: 25.4 h | T1/2 [11]: 24.5 h

C[N+]1(C)[C@@H]2C[C@H](OC(=O)C(O)c3ccccc3)C[C@H]1[C@@H]1O[C@@H]12 (stereo partly specified)
Ki [1]: 2 nM
